Measured values from ChEMBL document CHEMBL1124516, “Synthesis of 2,3-diaziridinyl-1,4-naphthoquinone sulfonate derivatives as potential antineoplastic agents” (1989).

Columns and labels:
[1] = tested on: Mus musculus; assay: Average change in weight in mice bearing the L1210 Leukemia, when compound (25 mg/kg) was administered once daily beginning 24 hr after tumor implantation, for 6 consecutive days.; format: functional
[2] = tested on: Mus musculus; assay: Average change in weight in mice bearing the L1210 Leukemia, when compound(30 mg/kg) was administered once daily beginning 24 hr after tumor implantation, for 6 consecutive days.; format: functional
[3] = tested on: Mus musculus; assay: Number of mice surviving for a period greater than 50 days when a dose of 30 mg/Kg is administered intraperitoneally; tested in 5 mice; format: functional
[4] = tested on: Mus musculus; assay: Average change in weight in mice bearing the L1210 Leukemia, when compound (20 mg/kg) was administered once daily beginning 24 hr after tumor implantation, for 6 consecutive days.; format: functional
[5] = tested on: L1210; assay: Percentage survival time of L1210 (murine leukemia) inoculated mice following 30 mg/kg i.p.; format: functional, Mus musculus; settings: route intraperitoneal
[6] = tested on: L1210; assay: Percentage survival time of L1210 (murine leukemia) inoculated mice following 20 mg/kg i.p.; format: functional, Mus musculus; settings: route intraperitoneal
[7] = tested on: L1210; assay: Percentage survival time of L1210 (murine leukemia) inoculated mice following 25 mg/kg i.p.; format: functional, Mus musculus; settings: route intraperitoneal
[8] = tested on: L1210; assay: Number L1210 (murine leukemia) inoculated mice surviving for >50 days following 25 mg/kg i.p.; format: functional, Mus musculus; settings: route intraperitoneal
[9] = tested on: Mus musculus; assay: Number of mice survived for a period greater than 50 days when a dose of 20 mg/Kg is administered intraperitoneally; tested in 5 mice; format: functional
[10] = tested on: Mus musculus; assay: Average change in weight in mice bearing the B16 Melanoma, when compound(100 mg/kg) was administered beginning 24 hr after tumor implantation, daily once for 6 consecutive days.; format: functional
[11] = tested on: Mus musculus; assay: The ratio of the survival time of treated to control animals x 100 in mice bearing B16 Melanoma, when compound (100 mg/kg) was administered intraperitoneally; format: functional
[12] = tested on: Mus musculus; assay: The ratio of the survival time of treated to control animals x 100 in mice bearing B16 Melanoma, when compound (150 mg/kg) was administered intraperitoneally; format: functional
[13] = tested on: Mus musculus; assay: Average change in weight in mice bearing the B16 Melanoma, when compound(50 mg/kg) was administered intraperitoneally beginning 24 hr after tumor implantation, daily once for 6 consecutive days.; format: functional
[14] = tested on: Mus musculus; assay: Average change in weight in mice bearing the B16 Melanoma, when compound(150 mg/kg) was administered beginning 24 hr after tumor implantation, daily once for 6 consecutive days.; format: functional
[15] = tested on: Mus musculus; assay: The ratio of the survival time of treated to control animals x 100 in mice bearing B16 Melanoma, when compound (50 mg/kg) was administered intraperitoneally; format: functional

SMILES	Average body weight change [1] [%]	Average change in body weight [2] [%]	Survivals [3]	Average change in body weight [4] [%]	Activity [5]	Activity [6]	Activity [7]	Survivals [8]	Survivals [9]	Average change in body weight [10] [%]	Activity [11]	Activity [12]	Average body weight change [13] [%]	Average change in body weight [14] [%]	Activity [15]
CCc1ccc(S(=O)(=O)Oc2cccc3c2C(=O)C(N2CC2)=C(N2CC2)C3=O)cc1	13.6	9.9	0	8.4	172	147	151	0	0	–	–	–	–	–	–
CC(C)c1cc(C(C)C)c(S(=O)(=O)Oc2cccc3c2C(=O)C(N2CC2)=C(N2CC2)C3=O)c(C(C)C)c1	9	7.4	0	7.8	100	100	102	0	0	–	–	–	–	–	–
O=C1C(N2CC2)=C(N2CC2)C(=O)c2c(OS(=O)(=O)c3cccs3)cccc21	-4.7	-6.4	5	-2.3	–	165	–	5	4	-18.2	161	77	-10.8	-22.7	156
CC(C)(C)c1ccc(S(=O)(=O)Oc2cccc3c2C(=O)C(N2CC2)=C(N2CC2)C3=O)cc1	11.8	6.7	0	12.8	98	104	98	0	0	–	–	–	–	–	–
O=C1C(N2CC2)=C(N2CC2)C(=O)c2c(OS(=O)(=O)c3ccc(I)cc3)cccc21	11.1	15.8	0	14.6	146	127	146	0	0	0.6	138	141	4.1	-4.1	132
O=C1C(N2CC2)=C(N2CC2)C(=O)c2c(OS(=O)(=O)c3cccc4ccccc34)cccc21	9.2	13.7	0	14.6	104	107	104	0	0	–	–	–	–	–	–
CCCCS(=O)(=O)Oc1cccc2c1C(=O)C(N1CC1)=C(N1CC1)C2=O	-10.9	-11.3	0	0.1	131	131	124	0	0	–	–	–	–	–	–
O=C1C(N2CC2)=C(N2CC2)C(=O)c2c(OS(=O)(=O)CCCCl)cccc21	-12.1	-27.6	0	-7.5	150	123	145	0	0	–	–	–	–	–	–
CCCCCCCCCCCCCCCCS(=O)(=O)Oc1cccc2c1C(=O)C(N1CC1)=C(N1CC1)C2=O	9.9	9.7	0	13	91	96	91	0	0	–	–	–	–	–	–
O=C1C(N2CC2)=C(N2CC2)C(=O)c2c(OS(=O)(=O)c3ccc([N+](=O)[O-])cc3)cccc21	-12.9	-13.1	4	-11.1	152	402	293	3	4	–	–	–	–	–	–
